This is an account of results in patent US20260042764A1, “COMPOSITIONS AND METHODS FOR INHIBITION OF KRAS” (TheRas, Inc., priority 2022, published 2026).

The target of test [1] is T1, Avi-KRAS G12D (1-169) GppNHp/RAF1 RBD-3xFLAG (52-151) (Homo sapiens, UniProt P01116, G12D).
T1 construct: Avi-KRAS G12D (1-169)
Briefly: Raf1-KRAS G12D-GppNHP disruption HTRF assay (Biological Example 1). Format: binding. The conditions noted are these: KRAS G12D, GppNHp-loaded; class symbols. The method, boiled down: (§1)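 Percent activity versus DMSO (100%) was derived from HTRF signal after KRAS–RAF1 RBD protein mix was incubated 1 h at room temperature with shaking and detection reagents were added for a further 1 h.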
Background: TR-FRET usually uses a lanthanide donor and a delayed reading to cut background.

In another test the test system is GP2d cells (KRAS G12D). The test can be described thus: Cell-based pERK HTRF assay in GP2d cell (Biological Example 2). The conditions noted are these: GP2d, GP2d (KRAS G12D) cells, pERK HTRF; class symbols. The essentials:
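Cells grown in DMEM with 10% FBS were exposed to compound for 60 min at 0.25% DMSO, using a 9-point half-log series starting at 1 μM or 100 nM. Lysates were then mixed with d2 and Eu cryptate antibodies for 4–24 h at room temperature, and pERK was read by HTRF.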

In test [2] the target is T2, Avi-KRAS WT (1-169) GppNHp/RAF1 RBD-3xFLAG (52-151) (Homo sapiens, UniProt P01116).
T2 construct: Avi-KRAS WT (1-169)
T2 sequence (P01116 1-169 isoform P01116-2): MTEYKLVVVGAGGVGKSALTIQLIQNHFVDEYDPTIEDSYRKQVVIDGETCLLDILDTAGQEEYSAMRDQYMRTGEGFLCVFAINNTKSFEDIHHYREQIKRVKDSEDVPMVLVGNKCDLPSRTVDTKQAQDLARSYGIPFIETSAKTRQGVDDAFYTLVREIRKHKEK
The test can be described thus: Raf1-KRAS WT-GppNHP disruption HTRF assay (Biological Example 1). Format: binding. Particulars: KRAS WT, GppNHp-loaded; class symbols. The method, boiled down:
as §1

Another test has as its system SW620 cells (KRAS G12V). The test can be described thus: Cell-based pERK HTRF assay in SW620 cell (Biological Example 4). The conditions noted are these: Homo sapiens, SW-620, SW620 (KRAS G12V) cells, pERK HTRF; class symbols. The method, boiled down:
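Read-out: HTRF pERK signal (excitation 320 nm, emission 615 nm) from lysates of SW620 cells after 4 h compound exposure. Dose range was 9 points, half-log steps from 1 μM, in 0.25% DMSO; antibody incubation ran 4–24 h at room temperature.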

The target of test [3] is T3, Avi-KRAS G12R (1-169) GppNHp/RAF1 RBD-3xFLAG (52-151) (Homo sapiens, UniProt P01116, G12R).
T3 construct: Avi-KRAS G12R (1-169)
T3 sequence (P01116 1-169 isoform P01116-2 G12R): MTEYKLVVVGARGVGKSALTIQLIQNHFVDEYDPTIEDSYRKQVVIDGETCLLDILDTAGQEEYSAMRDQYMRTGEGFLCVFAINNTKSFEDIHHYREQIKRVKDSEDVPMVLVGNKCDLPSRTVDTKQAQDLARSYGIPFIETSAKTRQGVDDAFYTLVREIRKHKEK
The test can be described thus: Raf1-KRAS G12R-GppNHP disruption HTRF assay (Biological Example 1). The conditions noted are these: KRAS G12R, GppNHp-loaded; class symbols. It counts as binding. The method, boiled down:
as §1

In test [4] the target is T4, Avi-KRAS G12V (1-169) GppNHp/RAF1 RBD-3xFLAG (52-151) (Homo sapiens, UniProt P01116, G12V).
T4 construct: Avi-KRAS G12V (1-169)
T4 sequence (P01116 1-169 isoform P01116-2 G12V): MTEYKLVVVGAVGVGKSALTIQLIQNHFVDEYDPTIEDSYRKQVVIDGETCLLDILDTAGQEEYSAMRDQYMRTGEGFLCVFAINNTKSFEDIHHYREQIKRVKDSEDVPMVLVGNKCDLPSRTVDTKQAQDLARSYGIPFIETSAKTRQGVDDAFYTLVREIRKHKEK
Briefly: Raf1-KRAS G12V-GppNHP disruption HTRF assay (Biological Example 1). Format: binding. Particulars: KRAS G12V, GppNHp-loaded; class symbols. The essentials:
as §1

T1 sequence (P01116 1-169 isoform P01116-2 G12D): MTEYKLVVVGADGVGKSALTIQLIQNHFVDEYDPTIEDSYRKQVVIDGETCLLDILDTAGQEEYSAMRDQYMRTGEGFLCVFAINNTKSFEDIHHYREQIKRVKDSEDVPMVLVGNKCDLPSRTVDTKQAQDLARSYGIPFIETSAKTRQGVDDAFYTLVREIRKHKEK

Turning to `CCN(c1nc(OC[C@@]23CCCN2C[C@H](F)C3)nc2c(F)c(-c3ccc(F)c4sc(N)c(C#N)c34)c(C(F)(F)F)cc12)[C@H]1C[C@@H](C)N(C(=O)[C@H](C)OC)C1` (atropisomer, axis not shown) [Compound 753], the IC50 – broadly, the concentration needed to halve the response being measured – in test [1] is 100 to 1000 nM; with GP2d cells (KRAS G12D), < 100 nM; in test [2], 100 to 1000 nM; with SW620 cells (KRAS G12V), < 100 nM; in test [3], 100 to 1000 nM; in test [4] it was 100 to 1000 nM.
`CN(C)C(=O)N1CC[C@H](N(C)c2nc(OC[C@@]34CCCN3C[C@H](F)C4)nc3c(F)c(-c4ccc(F)c5sc(N)c(C#N)c45)c(C(F)(F)F)cc23)C1` (atropisomer, axis not shown) [Compound 755]: the IC50 is < 100 nM in test [1]; < 100 nM in the test on GP2d cells (KRAS G12D); 100 to 1000 nM in test [2]; < 100 nM with SW620 cells (KRAS G12V); < 100 nM in test [3]; 100 to 1000 nM in test [4].
In the case of `COC(=O)N1CC[C@H](N(C)c2nc(OC[C@@]34CCCN3C[C@H](F)C4)nc3c(F)c(-c4ccc(F)c5sc(N)c(C#N)c45)c(C(F)(F)F)cc23)C1` (atropisomer, axis not shown) [Compound 756], the IC50 (in test [1]; with GP2d cells (KRAS G12D); in test [2]; in the test on SW620 cells (KRAS G12V); in test [3]; in test [4]) was < 100 nM throughout.
With `CCN(c1nc(OC[C@@]23CCCN2C[C@H](F)C3)nc2c(F)c(-c3ccc(F)c4sc(N)c(C#N)c34)c(C(F)(F)F)cc12)[C@H]1C[C@H]2CN(C3CCC3)C(=O)N2C1` (atropisomer, axis not shown) [Compound 757], the IC50 (in test [1]; in the test on GP2d cells (KRAS G12D); in test [2]; in the test with SW620 cells (KRAS G12V); in test [3]; in test [4]) was < 100 nM in each case.
Consider `CCOC1CN(C(=O)N2CC[C@H](N(CC)c3nc(OC[C@@]45CCCN4C[C@H](F)C5)nc4c(F)c(-c5ccc(F)c6sc(N)c(C#N)c56)c(C(F)(F)F)cc34)C2)C1` (atropisomer, axis not shown) [Compound 758], for which the IC50 (in test [1]; in the test with GP2d cells (KRAS G12D); in test [2]; in the test with SW620 cells (KRAS G12V); in test [3]; in test [4]) was < 100 nM in each case.
For the compound `[2H]C1([2H])OC(=O)N2C[C@@H](N(CC)c3nc(OC[C@@]45CCCN4C[C@H](F)C5)nc4c(F)c(-c5ccc(F)c6sc(N)c(C#N)c56)c(C(F)(F)F)cc34)C[C@H]21` (atropisomer, axis not shown) [Compound 760], the IC50 (in test [1]; in the test with GP2d cells (KRAS G12D); in test [2]; in the test with SW620 cells (KRAS G12V); in test [3]; in test [4]) was < 100 nM in each case.
Consider `CCN(c1nc(OC[C@@]23CCCN2C[C@H](F)C3)nc2c(F)c(-c3ccc(F)c4sc(N)c(C#N)c34)c(C(F)(F)F)cc12)[C@H]1CCN(C(=O)N2CC(OC)C2)[C@@H]1C` (atropisomer, axis not shown) [Compound 761], for which the IC50 (in test [1]; with GP2d cells (KRAS G12D); in test [2]; in the test on SW620 cells (KRAS G12V); in test [3]; in test [4]) was < 100 nM each time.
For the compound `CCN1C[C@@H]2C[C@H](N(CC)c3nc(OC[C@@]45CCCN4C[C@H](F)C5)nc4c(F)c(-c5ccc(F)c6sc(N)c(C#N)c56)c(C(F)(F)F)cc34)CN2C1=O` (atropisomer, axis not shown) [Compound 762], the IC50 (in test [1]; in the test with GP2d cells (KRAS G12D); in test [2]; in the test on SW620 cells (KRAS G12V); in test [3]; in test [4]) was < 100 nM each time.
In the case of `CCN(c1nc(OC[C@@]23CCCN2C[C@H](F)C3)nc2c(F)c(-c3ccc(F)c4sc(N)c(C#N)c34)c(C(F)(F)F)cc12)[C@H]1C[C@H](C)N(C(=O)c2ccon2)C1` (atropisomer, axis not shown) [Compound 766], the IC50 (in test [1]; in the test with GP2d cells (KRAS G12D); in test [2]; in the test with SW620 cells (KRAS G12V); in test [3]; in test [4]) was < 100 nM throughout.
With `COC(=O)N1CC[C@H](N(c2nc(OC[C@@]34CCCN3C[C@H](F)C4)nc3c(F)c(-c4ccc(F)c5sc(N)c(C#N)c45)c(C(F)(F)F)cc23)C2CC2)C1` (atropisomer, axis not shown) [Compound 767], the IC50 in test [1] was < 100 nM; in the test with GP2d cells (KRAS G12D), < 100 nM; in test [2], 100 to 1000 nM; in the test on SW620 cells (KRAS G12V), < 100 nM; in test [3], 100 to 1000 nM; in test [4] it was 100 to 1000 nM.
Regarding `CCN(c1nc(OC[C@@]23CCCN2C[C@H](F)C3)nc2c(F)c(-c3ccc(F)c4sc(N)c(C#N)c34)c(C(F)(F)F)cc12)[C@H]1CCN(C(=O)[C@@H]2C[C@H]2F)C1` (atropisomer, axis not shown) [Compound 768], the IC50 (in test [1]; in the test with GP2d cells (KRAS G12D); in test [2]; with SW620 cells (KRAS G12V); in test [3]; in test [4]) was < 100 nM each time.
For the compound `CCN(c1nc(OC[C@@]23CCCN2C[C@H](F)C3)nc2c(F)c(-c3ccc(F)c4sc(N)c(C#N)c34)c(C(F)(F)F)cc12)[C@H]1CCN(C(=O)[C@@H]2CCCCO2)C1` (atropisomer, axis not shown) [Compound 769], the IC50 (in test [1]; with GP2d cells (KRAS G12D); in test [2]; in the test on SW620 cells (KRAS G12V); in test [3]; in test [4]) was < 100 nM in each case.
Consider `CCN(c1nc(OC[C@@]23CCCN2C[C@H](F)C3)nc2c(F)c(-c3ccc(F)c4sc(N)c(C#N)c34)c(C(F)(F)F)cc12)[C@H]1CCN(C(=O)[C@H]2CCCCO2)C1` (atropisomer, axis not shown) [Compound 770], for which the IC50 (in test [1]; in the test with GP2d cells (KRAS G12D); in test [2]; with SW620 cells (KRAS G12V); in test [3]; in test [4]) was < 100 nM in each case.
As to `CCN(c1nc(OC[C@@]23CCCN2C[C@H](F)C3)nc2c(F)c(-c3ccc(F)c4sc(N)c(C#N)c34)c(C(F)(F)F)cc12)[C@H]1CCN(C(=O)c2cc(C)no2)C1` (atropisomer, axis not shown) [Compound 771], the IC50 (in test [1]; in the test on GP2d cells (KRAS G12D); in test [2]; in the test with SW620 cells (KRAS G12V); in test [3]; in test [4]) was < 100 nM in each case.
Regarding `CCN(c1nc(OC[C@@]23CCCN2C[C@H](F)C3)nc2c(F)c(-c3ccc(F)c4sc(N)c(C#N)c34)c(C(F)(F)F)cc12)[C@H]1CCN(C(=O)[C@H]2CC23CC3)C1` (atropisomer, axis not shown) [Compound 772], the IC50 (in test [1]; in the test with GP2d cells (KRAS G12D); in test [2]; with SW620 cells (KRAS G12V); in test [3]; in test [4]) was < 100 nM in each case.
For the compound `CCN(c1nc(OC[C@@]23CCCN2C[C@H](F)C3)nc2c(F)c(-c3ccc(F)c4sc(N)c(C#N)c34)c(C(F)(F)F)cc12)[C@H]1CCN(C(=O)[C@@H]2CC23CC3)C1` (atropisomer, axis not shown) [Compound 774], the IC50 was 100 to 1000 nM in test [1]; < 100 nM in the test with GP2d cells (KRAS G12D); 100 to 1000 nM in test [2]; < 100 nM with SW620 cells (KRAS G12V); 100 to 1000 nM in test [3]; 100 to 1000 nM in test [4].
As to `CCN(c1nc(OC[C@@]23CCCN2C[C@H](F)C3)nc2c(F)c(-c3ccc(F)c4sc(N)c(C#N)c34)c(C(F)(F)F)cc12)[C@H]1C[C@H]2CN(C3CC3)C(=O)N2C1` (atropisomer, axis not shown) [Compound 775], the concentration for half-maximal inhibition (IC50) (in test [1]; in the test on GP2d cells (KRAS G12D); in test [2]; in the test with SW620 cells (KRAS G12V); in test [3]; in test [4]) was < 100 nM each time.
